Activity calls are given as the source filed them.
Tests used:
HEK293 [1] = experiment: cells; details: Homo sapiens
HEK293 [2] = experiment: cells; details: Homo sapiens; remark: listed apart in the source
Escherichia coli = experiment: microbe, parasite or virus in culture
Exodeoxyribonuclease V = target: T1, Exodeoxyribonuclease V (Escherichia coli (strain K12), UniProt P04993+P07648+P08394); experiment: E. coli RecBCD inhibitors, dose response, counter-screen for AddAB inhibitor project, absorbance, V66 E. coli, mutant T4 phage (AID 492957); assay type: functional, cell-based, Escherichia coli str. K-12 substr. MG1655
T1 sequence (P04993 whole entry): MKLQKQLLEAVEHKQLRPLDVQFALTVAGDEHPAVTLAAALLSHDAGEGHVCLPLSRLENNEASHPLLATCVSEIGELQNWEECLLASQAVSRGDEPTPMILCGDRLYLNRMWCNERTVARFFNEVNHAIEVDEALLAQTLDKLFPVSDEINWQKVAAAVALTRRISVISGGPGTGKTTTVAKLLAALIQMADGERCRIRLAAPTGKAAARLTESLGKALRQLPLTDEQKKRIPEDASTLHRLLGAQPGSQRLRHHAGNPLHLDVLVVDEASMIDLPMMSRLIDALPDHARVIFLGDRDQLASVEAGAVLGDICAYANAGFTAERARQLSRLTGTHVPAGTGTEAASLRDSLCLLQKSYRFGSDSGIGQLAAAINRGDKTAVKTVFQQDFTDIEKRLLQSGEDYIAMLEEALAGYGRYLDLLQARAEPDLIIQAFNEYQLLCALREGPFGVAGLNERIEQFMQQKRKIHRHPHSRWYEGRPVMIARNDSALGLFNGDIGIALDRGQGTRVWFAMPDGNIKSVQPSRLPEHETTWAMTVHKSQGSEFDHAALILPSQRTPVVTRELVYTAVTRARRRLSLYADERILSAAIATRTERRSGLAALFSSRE
T1 sequence (P07648 whole entry): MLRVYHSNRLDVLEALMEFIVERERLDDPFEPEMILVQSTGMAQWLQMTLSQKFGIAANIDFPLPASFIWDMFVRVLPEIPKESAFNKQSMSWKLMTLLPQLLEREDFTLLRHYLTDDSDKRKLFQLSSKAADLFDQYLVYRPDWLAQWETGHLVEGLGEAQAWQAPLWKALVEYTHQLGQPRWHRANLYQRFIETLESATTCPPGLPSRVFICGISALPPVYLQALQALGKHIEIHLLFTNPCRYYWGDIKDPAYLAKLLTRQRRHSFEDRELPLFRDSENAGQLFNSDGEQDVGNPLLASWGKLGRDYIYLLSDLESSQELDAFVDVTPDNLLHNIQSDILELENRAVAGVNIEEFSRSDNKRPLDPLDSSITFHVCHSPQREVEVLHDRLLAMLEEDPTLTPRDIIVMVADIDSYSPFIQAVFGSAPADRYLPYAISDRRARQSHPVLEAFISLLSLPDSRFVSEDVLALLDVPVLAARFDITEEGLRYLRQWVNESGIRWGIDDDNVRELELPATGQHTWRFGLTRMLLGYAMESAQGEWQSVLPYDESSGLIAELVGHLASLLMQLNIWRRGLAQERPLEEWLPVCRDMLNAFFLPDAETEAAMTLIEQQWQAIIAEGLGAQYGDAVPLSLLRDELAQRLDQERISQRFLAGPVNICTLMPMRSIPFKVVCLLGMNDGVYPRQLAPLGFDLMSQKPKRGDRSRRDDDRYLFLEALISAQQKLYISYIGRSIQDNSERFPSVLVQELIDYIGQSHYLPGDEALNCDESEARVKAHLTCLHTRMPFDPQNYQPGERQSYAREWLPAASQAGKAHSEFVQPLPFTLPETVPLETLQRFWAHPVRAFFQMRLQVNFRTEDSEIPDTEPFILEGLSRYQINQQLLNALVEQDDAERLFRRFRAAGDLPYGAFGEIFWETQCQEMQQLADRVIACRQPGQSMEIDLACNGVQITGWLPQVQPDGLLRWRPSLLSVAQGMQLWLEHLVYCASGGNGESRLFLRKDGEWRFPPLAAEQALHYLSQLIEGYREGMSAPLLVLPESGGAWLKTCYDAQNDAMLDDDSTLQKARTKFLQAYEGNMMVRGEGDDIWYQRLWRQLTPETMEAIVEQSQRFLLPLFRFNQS
T1 sequence (P08394 whole entry): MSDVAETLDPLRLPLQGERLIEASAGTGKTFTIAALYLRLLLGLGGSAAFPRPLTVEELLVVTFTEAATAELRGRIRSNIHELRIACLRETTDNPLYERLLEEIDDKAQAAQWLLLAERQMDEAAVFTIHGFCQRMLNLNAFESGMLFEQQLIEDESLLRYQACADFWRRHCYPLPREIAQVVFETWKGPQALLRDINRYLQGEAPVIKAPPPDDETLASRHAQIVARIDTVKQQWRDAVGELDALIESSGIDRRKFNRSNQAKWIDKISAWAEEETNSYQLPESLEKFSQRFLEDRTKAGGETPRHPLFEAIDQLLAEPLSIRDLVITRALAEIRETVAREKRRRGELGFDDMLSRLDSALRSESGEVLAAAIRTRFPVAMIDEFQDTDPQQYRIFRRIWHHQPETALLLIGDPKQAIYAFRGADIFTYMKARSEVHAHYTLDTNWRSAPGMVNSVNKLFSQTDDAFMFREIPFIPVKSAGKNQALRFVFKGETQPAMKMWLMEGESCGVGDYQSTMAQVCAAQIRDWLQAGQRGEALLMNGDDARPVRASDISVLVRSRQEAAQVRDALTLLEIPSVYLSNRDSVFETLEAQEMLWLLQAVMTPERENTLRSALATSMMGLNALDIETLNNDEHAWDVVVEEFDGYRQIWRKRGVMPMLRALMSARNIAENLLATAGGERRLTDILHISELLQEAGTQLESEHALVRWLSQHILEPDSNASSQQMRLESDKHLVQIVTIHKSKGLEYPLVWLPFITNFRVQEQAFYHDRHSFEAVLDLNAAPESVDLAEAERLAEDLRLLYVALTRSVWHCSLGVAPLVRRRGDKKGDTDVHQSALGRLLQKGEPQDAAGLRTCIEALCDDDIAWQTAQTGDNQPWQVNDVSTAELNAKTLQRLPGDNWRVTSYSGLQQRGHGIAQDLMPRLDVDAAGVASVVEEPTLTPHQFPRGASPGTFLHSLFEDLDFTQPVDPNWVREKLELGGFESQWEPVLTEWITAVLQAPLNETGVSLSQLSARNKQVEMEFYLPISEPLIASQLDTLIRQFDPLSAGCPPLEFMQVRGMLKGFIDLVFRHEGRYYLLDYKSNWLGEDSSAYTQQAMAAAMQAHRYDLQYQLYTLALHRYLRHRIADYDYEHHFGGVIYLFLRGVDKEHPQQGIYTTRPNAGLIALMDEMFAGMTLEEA

[3] = Counterscreen for AddAB inhibitors: absorbance-based bacterial cell-based high throughput dose response assay for inhibitors of bacterial viability. [Related pubchem assays (depositor defined):AID435030, AID449728, AID449731, AID488942, AID488955, AID488956]; assay type: functional
[4] = target: Disintegrin and metalloproteinase domain-containing protein 17 (Homo sapiens, UniProt P78536); experiment: exosite inhibitors of ADAM17, dose response, biochemical (AID 743260)
[5] = A cytotoxicity screen of small molecule inhibitors of the PhoP region in Salmonella typhi identified in the primary screen. [Related pubchem assays: 1850, 1864, 1985 ]; assay type: functional
Paired box protein Pax-8 = Paired box protein Pax-8 (Homo sapiens, UniProt Q06710); experiment: inhibitors of PAX8-driven TPO luciferase reporter, dose response, RMG-I cells, cherry-pick (AID 687027); assay type: functional, cell-based;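 further: luciferase reporter driven by Pax8 target thyroperoxidase promoter measured by SteadyGlo luminescence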
[6] = target: Peroxisome proliferator-activated receptor gamma/Nuclear receptor coactivator 3 (Homo sapiens, UniProt P37231); experiment: TR-FRET dose response biochemical High Throughput Screening assay for agonists of the steroid receptor coactivator 3 (SRC-3) recruitment by the peroxisome proliferator-activated receptor gamma (PPAR gamma): non-selective agonists. [Related pubchem assays: 1301 (Confirmation screen.), 1048 (Primary screen.)]; assay type: functional
[7] = target: Peroxisome proliferator-activated receptor gamma/Nuclear receptor coactivator 2 (Homo sapiens, UniProt P37231); experiment: (§1) TR-FRET dose response biochemical High Throughput Screening assay for agonists of the steroid receptor coactivator 2 (SRC-2) recruitment by the peroxisome proliferator-activated receptor gamma (PPAR gamma): non-selective agonists. [Related pubchem assays: 1297, 1032 ]; assay type: functional
[8] = target: Peroxisome proliferator-activated receptor gamma/Nuclear receptor coactivator 1 (Homo sapiens, UniProt P37231); experiment: as §1, with “1 (SRC-1)” for “2 (SRC-2)”, “assays (depositor defined):AID1300, AID1808, AID504735, AID631]” for “assays: 1297, 1032 ]”; assay type: protein assay
Cytochrome P450 3A4 = Cytochrome P450 3A4 (Homo sapiens, UniProt P08684);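 further: CYP3A4 tested as one member of a cytochrome P450 panel screen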
Cytochrome P450 1A2 = target: T2, Cytochrome P450 1A2 (Homo sapiens, UniProt P05177);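 further: PubChem cytochrome P450 panel assay, CYP1A2 panel member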
T2 sequence (P05177 whole entry): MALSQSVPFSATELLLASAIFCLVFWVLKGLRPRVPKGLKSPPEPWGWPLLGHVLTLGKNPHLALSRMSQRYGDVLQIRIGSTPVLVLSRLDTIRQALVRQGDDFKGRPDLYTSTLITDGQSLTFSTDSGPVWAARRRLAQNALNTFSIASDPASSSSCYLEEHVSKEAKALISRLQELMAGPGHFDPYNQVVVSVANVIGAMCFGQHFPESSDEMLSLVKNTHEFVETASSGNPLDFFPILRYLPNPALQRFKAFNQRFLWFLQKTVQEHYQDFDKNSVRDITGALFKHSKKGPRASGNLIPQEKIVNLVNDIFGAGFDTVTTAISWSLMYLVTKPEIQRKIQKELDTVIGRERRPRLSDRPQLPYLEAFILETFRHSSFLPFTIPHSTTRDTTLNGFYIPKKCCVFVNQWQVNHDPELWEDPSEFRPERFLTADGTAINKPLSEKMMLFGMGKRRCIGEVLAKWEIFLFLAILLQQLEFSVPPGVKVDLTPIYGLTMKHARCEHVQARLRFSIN

Cytochrome P450 2C19 = Cytochrome P450 2C19 (Homo sapiens, UniProt P33261); experiment: Cytochrome panel assay with activity outcomes. Panel member name: p450-cyp2c19 Compounds with AC50 equal or less than 10 uM are considered active; assay type: functional
HeLa = experiment: HeLa cell cytotoxicity, dose response, cytotoxicity control for MITF activator project, CellTiter-Glo luminescence, cherry-pick samples (AID 540259); assay type: functional, cell-based; details: Homo sapiens
Cytochrome P450 2C9 = Cytochrome P450 2C9 (Homo sapiens, UniProt P11712)
[9] = target: T3, Runt-related transcription factor 1/Core-binding factor subunit beta (Homo sapiens, UniProt Q01196+Q13951); experiment: inhibitors of RUNX1 Runt–CBFb-SMMHC binding, primary screen, biochemical, FRET, Cerulean-Runt, Venus-CBFb-SMMHC, uHTS (AID 1434); assay type: protein assay;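 further: partner is the CBFb-SMMHC leukemia fusion protein rather than wild-type CBFb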
[10] = target: T3, Runt-related transcription factor 1/Core-binding factor subunit beta; experiment: inhibitors of RUNX1 Runt–CBFb-SMMHC binding, biochemical, TR-FRET (AID 1438); assay type: protein assay

Cytochrome P450 3A4, sequence (P08684 whole entry): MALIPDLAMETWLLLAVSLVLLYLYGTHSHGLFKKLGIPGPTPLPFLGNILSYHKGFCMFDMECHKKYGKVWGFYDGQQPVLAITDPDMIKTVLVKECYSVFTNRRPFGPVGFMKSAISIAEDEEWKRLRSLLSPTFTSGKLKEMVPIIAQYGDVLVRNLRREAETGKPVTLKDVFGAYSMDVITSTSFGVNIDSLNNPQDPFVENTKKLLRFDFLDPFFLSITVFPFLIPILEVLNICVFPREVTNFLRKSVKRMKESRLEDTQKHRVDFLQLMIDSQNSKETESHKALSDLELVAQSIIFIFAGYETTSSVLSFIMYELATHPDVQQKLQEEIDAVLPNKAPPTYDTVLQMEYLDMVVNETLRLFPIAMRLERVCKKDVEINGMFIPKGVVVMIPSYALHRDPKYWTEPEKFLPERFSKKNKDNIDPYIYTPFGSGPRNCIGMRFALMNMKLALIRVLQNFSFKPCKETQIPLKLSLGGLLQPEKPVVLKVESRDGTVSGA
Peroxisome proliferator-activated receptor gamma/Nuclear receptor coactivator 3, sequence (P37231 whole entry): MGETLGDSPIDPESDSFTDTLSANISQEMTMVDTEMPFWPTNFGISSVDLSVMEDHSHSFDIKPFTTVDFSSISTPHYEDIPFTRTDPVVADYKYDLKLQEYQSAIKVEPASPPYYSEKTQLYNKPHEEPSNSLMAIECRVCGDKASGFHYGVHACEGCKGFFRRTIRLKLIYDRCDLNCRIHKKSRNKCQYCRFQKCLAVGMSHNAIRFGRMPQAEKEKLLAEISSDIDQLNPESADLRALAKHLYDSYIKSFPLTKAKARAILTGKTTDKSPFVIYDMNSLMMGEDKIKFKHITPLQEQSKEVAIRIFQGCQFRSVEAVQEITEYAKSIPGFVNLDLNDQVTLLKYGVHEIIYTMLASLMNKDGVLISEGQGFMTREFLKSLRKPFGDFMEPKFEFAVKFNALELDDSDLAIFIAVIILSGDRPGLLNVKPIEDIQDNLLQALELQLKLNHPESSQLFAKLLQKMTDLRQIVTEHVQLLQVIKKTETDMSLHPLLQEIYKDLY
Peroxisome proliferator-activated receptor gamma/Nuclear receptor coactivator 3, sequence (Q9Y6Q9 whole entry, further chain): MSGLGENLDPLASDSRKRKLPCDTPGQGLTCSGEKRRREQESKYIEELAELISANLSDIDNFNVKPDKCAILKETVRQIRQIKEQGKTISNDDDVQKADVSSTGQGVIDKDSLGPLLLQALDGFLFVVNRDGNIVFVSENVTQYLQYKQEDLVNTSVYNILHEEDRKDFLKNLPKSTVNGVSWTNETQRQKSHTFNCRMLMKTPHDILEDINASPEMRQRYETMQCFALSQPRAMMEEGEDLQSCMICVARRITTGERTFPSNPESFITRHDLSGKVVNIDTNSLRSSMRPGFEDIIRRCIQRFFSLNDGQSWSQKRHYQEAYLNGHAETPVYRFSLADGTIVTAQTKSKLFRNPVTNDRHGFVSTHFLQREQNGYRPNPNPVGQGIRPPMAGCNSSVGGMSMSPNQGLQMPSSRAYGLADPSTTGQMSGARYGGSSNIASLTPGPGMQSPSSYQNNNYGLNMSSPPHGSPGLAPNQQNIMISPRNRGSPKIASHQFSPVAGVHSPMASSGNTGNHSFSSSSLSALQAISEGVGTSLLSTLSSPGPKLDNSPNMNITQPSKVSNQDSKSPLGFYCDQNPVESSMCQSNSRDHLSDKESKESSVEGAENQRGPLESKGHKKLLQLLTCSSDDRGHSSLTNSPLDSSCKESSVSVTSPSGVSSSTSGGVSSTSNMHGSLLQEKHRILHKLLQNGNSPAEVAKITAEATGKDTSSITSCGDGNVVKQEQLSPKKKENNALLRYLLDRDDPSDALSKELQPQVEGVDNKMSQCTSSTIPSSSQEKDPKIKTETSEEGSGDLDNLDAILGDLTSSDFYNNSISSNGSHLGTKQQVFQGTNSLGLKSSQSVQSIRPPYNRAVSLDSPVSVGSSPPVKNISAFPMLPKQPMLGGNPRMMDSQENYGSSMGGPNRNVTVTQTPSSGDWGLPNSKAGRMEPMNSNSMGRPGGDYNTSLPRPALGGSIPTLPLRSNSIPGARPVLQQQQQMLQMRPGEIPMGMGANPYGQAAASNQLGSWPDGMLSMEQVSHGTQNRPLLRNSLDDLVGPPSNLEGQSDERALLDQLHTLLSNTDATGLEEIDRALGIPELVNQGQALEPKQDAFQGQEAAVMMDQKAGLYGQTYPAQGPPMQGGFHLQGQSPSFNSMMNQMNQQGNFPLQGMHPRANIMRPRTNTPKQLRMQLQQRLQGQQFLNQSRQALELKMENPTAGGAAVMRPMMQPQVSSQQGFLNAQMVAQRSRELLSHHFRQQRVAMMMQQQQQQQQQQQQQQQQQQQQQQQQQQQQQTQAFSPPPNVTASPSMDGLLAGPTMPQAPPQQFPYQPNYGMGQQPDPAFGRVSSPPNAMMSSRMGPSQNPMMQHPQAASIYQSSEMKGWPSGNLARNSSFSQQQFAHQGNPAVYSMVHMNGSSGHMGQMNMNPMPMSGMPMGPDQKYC
Peroxisome proliferator-activated receptor gamma/Nuclear receptor coactivator 1, sequence (P37231 whole entry): as the sequence (P37231 whole entry) above
Peroxisome proliferator-activated receptor gamma/Nuclear receptor coactivator 1, sequence (Q15788 whole entry, further chain): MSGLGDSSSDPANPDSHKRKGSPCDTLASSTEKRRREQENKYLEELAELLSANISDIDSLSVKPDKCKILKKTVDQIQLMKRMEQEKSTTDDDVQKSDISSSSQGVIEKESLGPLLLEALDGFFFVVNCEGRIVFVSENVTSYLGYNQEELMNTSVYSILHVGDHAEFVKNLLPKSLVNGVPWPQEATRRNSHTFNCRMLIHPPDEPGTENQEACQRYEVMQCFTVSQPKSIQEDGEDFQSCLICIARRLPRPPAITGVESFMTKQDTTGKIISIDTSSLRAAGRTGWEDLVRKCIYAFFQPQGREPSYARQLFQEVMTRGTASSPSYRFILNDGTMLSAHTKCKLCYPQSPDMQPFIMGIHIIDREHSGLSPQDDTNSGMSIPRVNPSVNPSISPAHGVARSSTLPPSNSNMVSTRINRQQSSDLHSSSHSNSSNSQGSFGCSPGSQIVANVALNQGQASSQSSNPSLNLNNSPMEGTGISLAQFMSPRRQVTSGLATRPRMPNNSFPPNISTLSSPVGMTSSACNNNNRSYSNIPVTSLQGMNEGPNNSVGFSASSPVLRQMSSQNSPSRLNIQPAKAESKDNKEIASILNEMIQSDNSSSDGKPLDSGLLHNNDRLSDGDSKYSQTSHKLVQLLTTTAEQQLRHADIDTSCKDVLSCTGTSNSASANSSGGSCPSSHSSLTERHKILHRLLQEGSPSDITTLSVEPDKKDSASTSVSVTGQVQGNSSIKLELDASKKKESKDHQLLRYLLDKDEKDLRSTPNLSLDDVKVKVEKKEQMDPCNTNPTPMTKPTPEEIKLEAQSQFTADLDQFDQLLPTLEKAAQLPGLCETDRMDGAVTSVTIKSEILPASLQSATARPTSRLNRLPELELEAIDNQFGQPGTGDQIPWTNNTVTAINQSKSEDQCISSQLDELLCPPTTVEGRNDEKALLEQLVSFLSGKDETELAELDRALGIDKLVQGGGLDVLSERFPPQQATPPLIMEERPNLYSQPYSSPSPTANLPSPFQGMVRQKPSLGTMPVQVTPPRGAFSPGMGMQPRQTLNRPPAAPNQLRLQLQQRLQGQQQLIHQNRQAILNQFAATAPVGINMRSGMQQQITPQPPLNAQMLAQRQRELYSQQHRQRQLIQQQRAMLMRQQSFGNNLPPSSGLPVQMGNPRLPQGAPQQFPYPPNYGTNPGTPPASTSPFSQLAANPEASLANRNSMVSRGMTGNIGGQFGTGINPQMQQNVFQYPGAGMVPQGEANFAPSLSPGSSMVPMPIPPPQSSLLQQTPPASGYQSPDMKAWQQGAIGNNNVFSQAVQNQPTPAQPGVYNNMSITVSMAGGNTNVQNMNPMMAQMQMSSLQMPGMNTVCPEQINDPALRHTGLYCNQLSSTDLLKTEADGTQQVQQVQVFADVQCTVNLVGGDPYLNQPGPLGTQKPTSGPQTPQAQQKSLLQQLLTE
T3 sequence (Q01196 whole entry, the tested form may be a part): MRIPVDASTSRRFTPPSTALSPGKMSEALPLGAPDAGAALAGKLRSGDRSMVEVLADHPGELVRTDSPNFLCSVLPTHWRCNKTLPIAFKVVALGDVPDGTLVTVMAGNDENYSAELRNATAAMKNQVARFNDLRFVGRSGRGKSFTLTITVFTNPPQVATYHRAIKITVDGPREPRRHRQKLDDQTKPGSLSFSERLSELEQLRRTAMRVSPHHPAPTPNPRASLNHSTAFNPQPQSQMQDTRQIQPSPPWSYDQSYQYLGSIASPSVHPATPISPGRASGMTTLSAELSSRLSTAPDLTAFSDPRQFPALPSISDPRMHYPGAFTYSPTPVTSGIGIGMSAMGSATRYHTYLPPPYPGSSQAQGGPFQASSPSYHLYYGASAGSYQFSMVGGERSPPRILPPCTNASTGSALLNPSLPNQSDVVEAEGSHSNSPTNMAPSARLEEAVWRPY
T3 sequence (Q13951 whole entry, the tested form may be a part): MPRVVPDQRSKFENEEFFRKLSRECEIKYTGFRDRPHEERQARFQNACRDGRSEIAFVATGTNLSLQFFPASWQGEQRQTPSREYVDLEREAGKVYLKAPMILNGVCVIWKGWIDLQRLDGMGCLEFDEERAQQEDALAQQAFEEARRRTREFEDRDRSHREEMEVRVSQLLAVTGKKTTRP

CCOC(=O)c1c(CSc2ccccc2)n(C)c2cc(Br)c(O)c(CN(C)C)c12 [UMIFENOVIR]
EC50 (HEK293 [1]): > 59.7 µM (inactive)
EC50 (HEK293 [2]): > 59.7 µM (inactive)

O=C(CCc1nc2cccnc2n1Cc1ccccc1)N1CCOCC1
AC50 (Escherichia coli): 28.4 µM (active)

COc1ccc(N(CC(=O)NCc2ccc(Cl)cc2)S(=O)(=O)c2ccccc2[N+](=O)[O-])c(OC)c1
AC50 (Escherichia coli): 23.3 µM (active)

FC(F)Oc1ccc(NC(S)=NCc2nc3ccccc3[nH]2)cc1
IC50 (Exodeoxyribonuclease V): > 119 µM (inactive)
IC50 [3]: > 119 µM (inactive)

Cc1ccc(C)c(N2CCN(c3ccc4cc(S(=O)(=O)N5CCCCC5)ccc4n3)CC2)c1
AC50 (Escherichia coli): 27.6 µM (active)

CCCCCC(CC(=O)NO)C(=O)NC(C(=O)N1CCCC1CO)C(C)C (stereo not given)
IC50 [4]: 3.59 µM (active)
EC50 [5]: > 50 µM (active)
IC50 (Exodeoxyribonuclease V): > 39.5 µM (inactive)
IC50 [3]: 77.6 µM (inactive)
AC50 (Paired box protein Pax-8): 5.27 µM (active)

Cc1cc2nc(-c3ccc(SCc4ccccc4C#N)nc3)[nH]c2cc1C
EC50 [6]: > 79.4 µM (not active)
EC50 [7]: > 79.4 µM (not active)
EC50 [8]: > 79.4 µM (inactive)

CCNc1ncc2nc(-c3ccc(Cl)cc3)c(=O)n(Cc3ccc(F)cc3)c2n1
AC50 (Cytochrome P450 3A4): inconclusive
AC50 (Cytochrome P450 1A2): 12.6 µM (inconclusive)
AC50 (Cytochrome P450 2C19): inconclusive

O=C(CNc1cccc(F)c1)N1CCc2ccccc2C1
AC50 (HeLa): 157 µM (active)

Cc1cc(C(=O)CN2C(=O)NC3(CCCCC3C)C2=O)c(C)n1Cc1cccs1 (stereo not given)
AC50 (HeLa): > 350 µM (inactive)

Cc1ccc(NC(=O)CSCC(=O)Nc2ccccc2N2CCCCC2)cc1
EC50 (HEK293 [1]): > 59.6 µM (inactive)
EC50 (HEK293 [2]): > 59.6 µM (inactive)

Cc1cccc[n+]1C1C(c2ccccc2)C(C#N)=C([C-](C#N)C#N)NC1(O)C1CC1 (stereo not given)
EC50 [6]: > 79.4 µM (not active)
EC50 [7]: > 79.4 µM (not active)
EC50 [8]: > 79.4 µM (inactive)

COc1ccccc1NC(=O)N1CCC(c2nnc(SCC(N)=O)n2C)CC1
AC50 (Cytochrome P450 3A4): inconclusive
AC50 (Cytochrome P450 2C19): inconclusive

Cc1ccc(S(=O)(=O)NCC2CCC(C(=O)O)CC2)cc1 (stereo not given)
AC50 (Cytochrome P450 3A4): inconclusive
AC50 (Cytochrome P450 2C9): 0.1 µM (inconclusive)

CCC(=O)NCCc1nc2cc(NC(=O)c3ccc(Cl)cc3)ccc2n1C
AC50 (HeLa): 250 µM (active)

Oc1ccc(/N=C/c2ccc(-c3cccs3)s2)cc1
EC50 [6]: 73 µM (not active)
EC50 [7]: 12 µM (not active)
IC50 [9]: 4.2 µM (active)
IC50 [10]: > 100 µM (inactive)
EC50 [8]: 8.81 µM (active)

Reference: ChEMBL document CHEMBL1201862, “PubChem BioAssay data set” (2004)
